Test results as given in US20240208992A1, “MACROCYCLES AS CFTR MODULATORS” (Idorsia Pharmaceuticals Ltd, priority 2021, published 2024).

Molecular target: human F508del-CFTR (Homo sapiens, UniProt P13569, DEL508-508)
Assay: F508del-CFTR cell surface expression (corrector activity), DiscoveRx ß-galactosidase complementation chemiluminescence assay in recombinant U2OS cell line;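 also: U2OS cells co-expressing ProLink-tagged F508del-CFTR and a membrane-anchored enzyme acceptor, where more surface CFTR restores β-galactosidase activity measured by chemiluminescence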
Conditions: U2OS cell line, 16h compound incubation; for EC50: EC50, F508del-CFTR cell surface expression, geomean values; for Emax: U2OS, in relation to the Emax of the corrector lumacaftor (=100%), arithmetic mean values

Sequence of human F508del-CFTR (P13569 with tags, fused parts or gaps DEL508-508): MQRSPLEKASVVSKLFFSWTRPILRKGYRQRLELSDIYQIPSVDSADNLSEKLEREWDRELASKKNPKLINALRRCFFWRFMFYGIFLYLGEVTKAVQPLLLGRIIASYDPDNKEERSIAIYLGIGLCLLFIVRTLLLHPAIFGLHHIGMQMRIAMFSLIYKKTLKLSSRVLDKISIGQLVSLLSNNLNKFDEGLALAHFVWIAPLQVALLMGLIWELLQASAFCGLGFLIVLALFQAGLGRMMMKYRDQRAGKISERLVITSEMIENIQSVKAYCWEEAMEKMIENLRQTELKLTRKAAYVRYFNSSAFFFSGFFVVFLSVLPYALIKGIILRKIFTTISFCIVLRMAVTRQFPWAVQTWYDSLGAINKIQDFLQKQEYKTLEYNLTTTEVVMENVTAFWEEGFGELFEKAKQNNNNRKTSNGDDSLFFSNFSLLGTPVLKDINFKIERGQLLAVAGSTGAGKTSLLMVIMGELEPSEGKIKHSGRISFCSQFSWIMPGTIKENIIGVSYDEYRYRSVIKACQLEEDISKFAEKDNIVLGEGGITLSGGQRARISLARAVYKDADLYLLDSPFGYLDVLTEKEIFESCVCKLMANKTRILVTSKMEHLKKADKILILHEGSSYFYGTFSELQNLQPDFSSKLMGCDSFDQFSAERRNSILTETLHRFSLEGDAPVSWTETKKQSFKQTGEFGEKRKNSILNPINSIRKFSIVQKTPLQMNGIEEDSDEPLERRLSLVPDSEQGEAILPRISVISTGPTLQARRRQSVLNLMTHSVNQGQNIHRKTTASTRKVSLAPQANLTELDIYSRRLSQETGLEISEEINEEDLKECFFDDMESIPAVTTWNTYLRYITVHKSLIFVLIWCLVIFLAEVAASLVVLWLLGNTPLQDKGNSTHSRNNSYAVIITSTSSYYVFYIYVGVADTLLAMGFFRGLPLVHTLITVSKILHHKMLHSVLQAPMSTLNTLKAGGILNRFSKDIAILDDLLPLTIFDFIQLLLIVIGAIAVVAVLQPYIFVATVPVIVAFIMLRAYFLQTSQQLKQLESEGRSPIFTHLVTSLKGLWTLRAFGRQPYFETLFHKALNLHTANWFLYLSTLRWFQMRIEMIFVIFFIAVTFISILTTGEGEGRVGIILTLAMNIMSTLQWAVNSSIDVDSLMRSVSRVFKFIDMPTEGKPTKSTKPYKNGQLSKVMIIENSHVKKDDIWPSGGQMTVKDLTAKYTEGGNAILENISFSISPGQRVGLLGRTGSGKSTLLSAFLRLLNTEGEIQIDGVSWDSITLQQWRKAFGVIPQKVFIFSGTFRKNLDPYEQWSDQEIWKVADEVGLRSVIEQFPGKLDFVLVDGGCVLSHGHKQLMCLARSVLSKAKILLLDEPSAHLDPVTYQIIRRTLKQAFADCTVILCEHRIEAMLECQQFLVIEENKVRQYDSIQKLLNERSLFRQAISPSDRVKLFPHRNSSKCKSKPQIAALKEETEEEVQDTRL

Row | SMILES | EC50 | Emax
1 | COc1ccc2c(c1)C(=O)N[C@H](C(=O)NCCc1ccc3c(c1)OCCC3)CC(=O)N(C)[C@@H](CC(C)C)C(=O)N(C)CC(=O)N[C@H](Cc1ccccc1)CO2 [Example 245, (3R,9S,13S)-3-benzyl-N-(2-(chroman-7-yl)ethyl)-9-isobutyl-17-methoxy-7,10-dimethyl-5,8,11,15-tetraoxo-2,3,4,5,6,7,8,9,10,11,12,13,14,15-tetradecahydrobenzo[p][1]oxa[4,7,10,14]tetraazacycloheptadecine-13-carboxamide] | 260 nM | 174%
2 | Cc1cccc2c1C(=O)N[C@H](C(=O)NCCc1ccc3c(c1)OCO3)CC(=O)N(C)[C@@H](CC(C)C)C(=O)N(CCC1CCCCC1)CC(=O)N[C@H](Cc1ccccc1)CO2 [Example 246, (3R,9S,13S)-N-(2-(benzo[d][1,3]dioxol-5-yl)ethyl)-3-benzyl-7-(2-cyclohexylethyl)-9-isobutyl-10,16-dimethyl-5,8,11,15-tetraoxo-2,3,4,5,6,7,8,9,10,11,12,13,14,15-tetradecahydrobenzo[p][1]oxa[4,7,10,14]tetraazacycloheptadecine-13-carboxamide] | 140 nM | 105%
3 | COc1cccc(CCNC(=O)[C@@H]2CC(=O)N(C)[C@@H](CC(C)C)C(=O)N(CCC3CCCCC3)CC(=O)N[C@H](Cc3ccccc3)COc3cccc(C)c3C(=O)N2)c1 [Example 247, (3R,9S,13S)-3-benzyl-7-(2-cyclohexylethyl)-9-isobutyl-N-(3-methoxyphenethyl)-10,16-dimethyl-5,8,11,15-tetraoxo-2,3,4,5,6,7,8,9,10,11,12,13,14,15-tetradecahydrobenzo[p][1]oxa[4,7,10,14]tetraazacycloheptadecine-13-carboxamide] | 146 nM | 111%
4 | COc1ccc2c(c1)C(=O)N[C@H](C(=O)NCCc1ccc3c(c1)OCO3)CC(=O)N(C)[C@@H](CC(C)C)C(=O)N(CCC1CCCCC1)CC(=O)N[C@H](Cc1ccccc1)CO2 [Example 248, (3R,9S,13S)-N-(2-(benzo[d][1,3]dioxol-5-yl)ethyl)-3-benzyl-7-(2-cyclohexylethyl)-9-isobutyl-17-methoxy-10-methyl-5,8,11,15-tetraoxo-2,3,4,5,6,7,8,9,10,11,12,13,14,15-tetradecahydrobenzo[p][1]oxa[4,7,10,14]tetraazacycloheptadecine-13-carboxamide] | 106 nM | 191%
5 | COc1cccc(CCNC(=O)[C@@H]2CC(=O)N(C)[C@@H](CC(C)C)C(=O)N(CCC3CCCCC3)CC(=O)N[C@H](Cc3ccccc3)COc3ccc(OC)cc3C(=O)N2)c1 [Example 249, (3R,9S,13S)-3-benzyl-7-(2-cyclohexylethyl)-9-isobutyl-17-methoxy-N-(3-methoxyphenethyl)-10-methyl-5,8,11,15-tetraoxo-2,3,4,5,6,7,8,9,10,11,12,13,14,15-tetradecahydrobenzo[p][1]oxa[4,7,10,14]tetraazacycloheptadecine-13-carboxamide] | 116 nM | 175%
6 | CC(C)C[C@H]1C(=O)N(CCC2CCCCC2)CC(=O)N[C@H](Cc2ccccc2)COc2cc3ccccc3cc2C(=O)N[C@H](C(=O)NCCc2ccc3c(c2)OCO3)CC(=O)N1C [Example 250, (3R,9S,13S)-N-(2-(benzo[d][1,3]dioxol-5-yl)ethyl)-3-benzyl-7-(2-cyclohexylethyl)-9-isobutyl-10-methyl-5,8,11,15-tetraoxo-2,3,4,5,6,7,8,9,10,11,12,13,14,15-tetradecahydronaphtho[2,3-p][1]oxa[4,7,10,14]tetraazacycloheptadecine-13-carboxamide] | 86 nM | 160%
7 | COc1cccc(CCNC(=O)[C@@H]2CC(=O)N(C)[C@@H](CC(C)C)C(=O)N(CCC3CCCCC3)CC(=O)N[C@H](Cc3ccccc3)COc3cc4ccccc4cc3C(=O)N2)c1 [Example 251, (3R,9S,13S)-3-benzyl-7-(2-cyclohexylethyl)-9-isobutyl-N-(3-methoxyphenethyl)-10-methyl-5,8,11,15-tetraoxo-2,3,4,5,6,7,8,9,10,11,12,13,14,15-tetradecahydronaphtho[2,3-p][1]oxa[4,7,10,14]tetraazacycloheptadecine-13-carboxamide] | 83 nM | 159%
8 | CCc1ccc(CCNC(=O)[C@@H]2CC(=O)N(C)[C@@H](CC(C)C)C(=O)N(C)CC(=O)N[C@H](Cc3ccccc3)COc3ccncc3C(=O)N2)cc1 [Example 252, (3R,9S,13S)-3-benzyl-N-(4-ethylphenethyl)-9-isobutyl-7,10-dimethyl-5,8,11,15-tetraoxo-2,3,4,5,6,7,8,9,10,11,12,13,14,15-tetradecahydropyrido[3,4-p][1]oxa[4,7,10,14]tetraazacycloheptadecine-13-carboxamide] | 888 nM | 111%
9 | CC(C)C[C@H]1C(=O)N(CCC2CCCCC2)CC(=O)N[C@H](Cc2ccccc2)COc2ccc(Cl)cc2C(=O)N[C@H](C(=O)NCCc2ccc3c(c2)OCO3)CC(=O)N1C [Example 253, (3R,9S,13S)-N-(2-(benzo[d][1,3]dioxol-5-yl)ethyl)-3-benzyl-17-chloro-7-(2-cyclohexylethyl)-9-isobutyl-10-methyl-5,8,11,15-tetraoxo-2,3,4,5,6,7,8,9,10,11,12,13,14,15-tetradecahydrobenzo[p][1]oxa[4,7,10,14]tetraazacycloheptadecine-13-carboxamide] | 88 nM | 136%
10 | COc1cccc(CCNC(=O)[C@@H]2CC(=O)N(C)[C@@H](CC(C)C)C(=O)N(CCC3CCCCC3)CC(=O)N[C@H](Cc3ccccc3)COc3ccc(Cl)cc3C(=O)N2)c1 [Example 254, (3R,9S,13S)-3-benzyl-17-chloro-7-(2-cyclohexylethyl)-9-isobutyl-N-(3-methoxyphenethyl)-10-methyl-5,8,11,15-tetraoxo-2,3,4,5,6,7,8,9,10,11,12,13,14,15-tetradecahydrobenzo[p][1]oxa[4,7,10,14]tetraazacycloheptadecine-13-carboxamide] | 102 nM | 152%
11 | COc1cc(OC)c2c(c1)OC[C@@H](Cc1ccccc1)NC(=O)CN(CCC1CCCCC1)C(=O)[C@H](CC(C)C)N(C)C(=O)C[C@@H](C(=O)NCCc1ccc3c(c1)OCO3)NC2=O [Example 255, (3R,9S,13S)-N-(2-(benzo[d][1,3]dioxol-5-yl)ethyl)-3-benzyl-7-(2-cyclohexylethyl)-9-isobutyl-16,18-dimethoxy-10-methyl-5,8,11,15-tetraoxo-2,3,4,5,6,7,8,9,10,11,12,13,14,15-tetradecahydrobenzo[p][1]oxa[4,7,10,14]tetraazacycloheptadecine-13-carboxamide] | 183 nM | 299%
12 | COc1cccc(CCNC(=O)[C@@H]2CC(=O)N(C)[C@@H](CC(C)C)C(=O)N(CCC3CCCCC3)CC(=O)N[C@H](Cc3ccccc3)COc3cc(OC)cc(OC)c3C(=O)N2)c1 [Example 256, (3R,9S,13S)-3-benzyl-7-(2-cyclohexylethyl)-9-isobutyl-16,18-dimethoxy-N-(3-methoxyphenethyl)-10-methyl-5,8,11,15-tetraoxo-2,3,4,5,6,7,8,9,10,11,12,13,14,15-tetradecahydrobenzo[p][1]oxa[4,7,10,14]tetraazacycloheptadecine-13-carboxamide] | 147 nM | 319%
13 | COc1cccc2c1C(=O)N[C@H](C(=O)NCCc1ccc3c(c1)OCO3)CC(=O)N(C)CC(=O)N(CCC1CCCCC1)CC(=O)N[C@H](Cc1ccccc1)CO2 [Example 257, (3R,13S)-N-(2-(benzo[d][1,3]dioxol-5-yl)ethyl)-3-benzyl-7-(2-cyclohexylethyl)-16-methoxy-10-methyl-5,8,11,15-tetraoxo-2,3,4,5,6,7,8,9,10,11,12,13,14,15-tetradecahydrobenzo[p][1]oxa[4,7,10,14]tetraazacycloheptadecine-13-carboxamide] | 249 nM | 116%
14 | COc1cccc(CCNC(=O)[C@@H]2CC(=O)N(C)CC(=O)N(CCC3CCCCC3)CC(=O)N[C@H](Cc3ccccc3)COc3cccc(OC)c3C(=O)N2)c1 [Example 258, (3R,13S)-3-benzyl-7-(2-cyclohexylethyl)-16-methoxy-N-(3-methoxyphenethyl)-10-methyl-5,8,11,15-tetraoxo-2,3,4,5,6,7,8,9,10,11,12,13,14,15-tetradecahydrobenzo[p][1]oxa[4,7,10,14]tetraazacycloheptadecine-13-carboxamide] | 424 nM | 117%
15 | COc1cccc2c1C(=O)N[C@H](C(=O)NCCc1ccc3c(c1)OCCCC3)CC(=O)N(C)[C@@H](CC(C)C)C(=O)N1CCOC[C@@H]1C(=O)N[C@H](Cc1ccccc1)CO2 [Example 260, (7S,11S,20R,22aR)-20-benzyl-7-isobutyl-14-methoxy-8-methyl-6,9,13,22-tetraoxo-N-(2-(2,3,4,5-tetrahydrobenzo[b]oxepin-8-yl)ethyl)-1,3,4,6,7,8,9,10,11,12,13,19,20,21,22,22a-hexadecahydrobenzo[p][1,4]oxazino[3,4-f][1]oxa[4,7,10,14]tetraazacycloheptadecine-11-carboxamide] | 783 nM | 243%
16 | CC(C)C[C@H]1C(=O)N(CCC2CCCCC2)CC(=O)N[C@H](Cc2ccccc2)COc2ccncc2C(=O)N[C@H](C(=O)NCCc2ccc3c(c2)OCCC3)CC(=O)N1C [Example 261, (3R,9S,13S)-3-benzyl-N-(2-(chroman-7-yl)ethyl)-7-(2-cyclohexylethyl)-9-isobutyl-10-methyl-5,8,11,15-tetraoxo-2,3,4,5,6,7,8,9,10,11,12,13,14,15-tetradecahydropyrido[3,4-p][1]oxa[4,7,10,14]tetraazacycloheptadecine-13-carboxamide] | 327 nM | 215%
17 | CC(C)C[C@H]1C(=O)N(CCC2CCCCC2)CC(=O)N[C@H](Cc2ccccc2)COc2ccncc2C(=O)N[C@H](C(=O)NCCc2ccc3c(c2)OCC3)CC(=O)N1C [Example 262, (3R,9S,13S)-3-benzyl-7-(2-cyclohexylethyl)-N-(2-(2,3-dihydrobenzofuran-6-yl)ethyl)-9-isobutyl-10-methyl-5,8,11,15-tetraoxo-2,3,4,5,6,7,8,9,10,11,12,13,14,15-tetradecahydropyrido[3,4-p][1]oxa[4,7,10,14]tetraazacycloheptadecine-13-carboxamide] | 339 nM | 231%
